These are literature values, as cited in US9751843B2, “Substituted uracils and use thereof” (Bayer Pharma Aktiengesellschaft, priority 2013, dated 2017).

Molecules are shown by their SMILES.

The data set relates to chymase.
[1] abbreviates: hamsters, myocardial infarction model.

With `CCOc1ccccc1CC1C(=O)N(C(=O)NC(c2ccc(C)cc2)c2ccc(C)cc2)C1Oc1ccc(C(=O)O)cc1` (stereo not drawn) [BCEAB], the chymase activity entry (hamster, in vivo) is recorded as “reduced”. Also, under setting [1], the hemodynamics entry was “improved” and the mortality entry is reported as “reduced”.
